# Source: PMC11571207, “Stereorandomized Oncocins with Preserved Ribosome Binding and Antibacterial Activity” (Journal of Medicinal Chemistry, 2024)
# Like-named read-outs stand apart in the source and are kept apart here. Non-standard residues stand in square brackets, D forms with d. Residues, ends and D or L forms follow the SMILES beside them.
# Key:
# [1] = test system: human red blood cells; assay: Hemolysis assay, minimum hemolytic concentration
# [2] = test system: P. aeruginosa ZEM9A; assay: microbe, parasite or virus in culture; conditions: for MIC P. aeruginosa ZEM9A, 12.5% MHB / MIC P. aeruginosa ZEM9A, full MHB: clinical isolate, 16–20 h at 37 °C; for MIC P. aeruginosa ZEM9A, 12.5% MHB: 12.5% MHB pH 7.4; for MIC P. aeruginosa ZEM9A, full MHB: full MHB pH 7.4; for MIC P. aeruginosa ZEM9A: supplement CSV
# In short: (§1)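 Minimal inhibitory concentrations come from broth microdilution in MH medium, with a top peptide concentration of 64 μg/mL halved serially.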
# [3] = test system: K. pneumoniae OXA-48; assay: microbe, parasite or virus in culture; conditions: for MIC K. pneumoniae OXA-48, 12.5% MHB / MIC K. pneumoniae OXA-48, full MHB: carbapenem-resistant, 16–20 h at 37 °C; for MIC K. pneumoniae OXA-48, 12.5% MHB: 12.5% MHB pH 7.4; for MIC K. pneumoniae OXA-48, full MHB: full MHB pH 7.4; for MIC K. pneumoniae OXA-48: supplement CSV
# In short: as §1
# [4] = test system: P. aeruginosa ZEM-1A; assay: microbe, parasite or virus in culture; conditions: for MIC P. aeruginosa ZEM-1A, 12.5% MHB / MIC P. aeruginosa ZEM-1A, full MHB: clinical isolate, 16–20 h at 37 °C, cells marked c: single measurement (in duplicates); for MIC P. aeruginosa ZEM-1A, 12.5% MHB: 12.5% MHB pH 7.4; for MIC P. aeruginosa ZEM-1A, full MHB: full MHB pH 7.4; for MIC P. aeruginosa ZEM-1A: supplement CSV
# In short: as §1
# [5] = test system: E. cloacae; assay: microbe, parasite or virus in culture; conditions: for MIC E. cloacae, 12.5% MHB: 12.5% MHB pH 7.4; for MIC E. cloacae, 12.5% MHB / MIC E. cloacae, full MHB: 16–20 h at 37 °C; for MIC E. cloacae, full MHB: full MHB pH 7.4; for MIC E. cloacae: supplement CSV
# In short: as §1
# [6] = test system: P. aeruginosa PA14; assay: microbe, parasite or virus in culture; conditions: for MIC P. aeruginosa PA14, 12.5% MHB: 12.5% MHB pH 7.4; for MIC P. aeruginosa PA14, 12.5% MHB / MIC P. aeruginosa PA14, full MHB: 16–20 h at 37 °C, two different duplicate MIC determinations; for MIC P. aeruginosa PA14, full MHB: full MHB pH 7.4; for MIC P. aeruginosa PA14: supplement CSV
# In short: as §1
# [7] = test system: P. aeruginosa PA14 2P4 (pmrB); assay: microbe, parasite or virus in culture; conditions: for MIC P. aeruginosa PA14 2P4 (pmrB), 12.5% MHB / MIC P. aeruginosa PA14 2P4 (pmrB), full MHB: polymyxin B resistant strain, 16–20 h at 37 °C; for MIC P. aeruginosa PA14 2P4 (pmrB), 12.5% MHB: 12.5% MHB pH 7.4; for MIC P. aeruginosa PA14 2P4 (pmrB), full MHB: full MHB pH 7.4; for MIC P. aeruginosa PA14 2P4: supplement CSV
# In short: as §1
# [8] = test system: P. aeruginosa PA14 4.18 (pmrB); conditions: for MIC P. aeruginosa PA14 4.18 (pmrB), 12.5% MHB / MIC P. aeruginosa PA14 4.18 (pmrB), full MHB: polymyxin B resistant strain, 16–20 h at 37 °C; for MIC P. aeruginosa PA14 4.18 (pmrB), 12.5% MHB: 12.5% MHB pH 7.4; for MIC P. aeruginosa PA14 4.18 (pmrB), full MHB: full MHB pH 7.4; for MIC P. aeruginosa PA14 4.18: supplement CSV
# [9] = test system: E. coli BW25113 WT; conditions: Table S1, 16-20 h at 37 °C; for MIC E. coli BW25113 WT, 12.5% MH: 12.5% Müller-Hinton medium pH 7.4; for MIC E. coli BW25113 WT, Full MH: full Müller-Hinton medium pH 7.4
# Protocol: (§2) Minimum inhibitory concentration assay
# (§3) Antimicrobial activity was assayed against P. aeruginosa PAO1, K. pneumoniae NCTC418, E. coli W3110, A. baumannii ATCC 19606, methicillin-resistant S. aureus COL (MRSA), and for selected peptides on P. aeruginosa PA14 and the polymyxin-B-resistant derivative PA14 2P4, as well as the clinical isolates ZEM-1A and ZEM9A, K. pneumoniae OXA-48, S. aureus Newman, Enterobacter cloacae and Burkholderia cenocepacia. The minimal inhibitory concentration (MIC) was determined by using broth microdilution method. A colo ny of bacteria was picked and grown in Luria-Bertani (LB) medium overnight at 37°C. For E. coli BW25113 sbmA::kan the medium was supplemented with 25 mg/L of kanamycin. The next day, the culture was then regrown in LB medium to log phase (OD600 = 0.6 to 0.8), which lasted approximately 4 h, and diluted to an OD600 of 0.022 in the desired medium. Stock solutions of 1 mg/mL of the samples were prepared in sterilized milliQ water and diluted to the beginning concentration of 64 μg/mL in 300 μL Mueller Hinton (MH)-medium. The diluted samples were added to first well of 96-well microtiter plate (TPP, untreated, Faust Laborbedarf, AG, Schaffhausen) and diluted serially by ½. Finally, 4 μL of the bacterial suspension was inoculated into the sample solutions (150 μL/well) with a final inoculation of about 5∙10^5 CFU/mL. The plates were then incubated at 37°C for 15-18h. For each assay, sterility (broth only) and growth control (broth with bacterial inoculum, without antibiotics) were checked with two columns in the plate. The next day, 15 μL of 3-(4,5-dimethylthiazol-2-yl)-2,5-diphenyltetrazolium bromide (MTT) was added to each well of the plate, such a way that MIC was defined as the lowest concentration of the peptide that inhibited visible growth of the tested […]
# (§4) Table S1. Activity of stereorandomized and diastereomeric oncocins against E. coli BW25113 WT and BW25113 sbmA::kan mutant in full and 12.5% MH, at pH 7.4. […]
# (§5) a) Minimum inhibitory concentration (MIC, μg/mL) was determined on E. coli BW25113 WT and […]
# [10] = test system: E. coli BW25113 sbmA::kan; conditions: Table S1, sbmA::kan mutant, 16-20 h at 37 °C; for MIC E. coli BW25113 SbmA-, 12.5% MH: 12.5% Müller-Hinton medium pH 7.4; for MIC E. coli BW25113 SbmA-, Full MH: full Müller-Hinton medium pH 7.4
# Protocol: as §2, §3, §4, §5
Compound,"MIC P. aeruginosa ZEM9A, 12.5% MHB [2]","MIC P. aeruginosa ZEM9A, full MHB [2]",MIC P. aeruginosa ZEM9A ([2]; 12.5% MH pH 7.4),MIC P. aeruginosa ZEM9A ([2]; full MH pH 7.4),"MIC K. pneumoniae OXA-48, 12.5% MHB [3]","MIC K. pneumoniae OXA-48, full MHB [3]",MIC K. pneumoniae OXA-48 ([3]; 12.5% MH pH 7.4),MIC K. pneumoniae OXA-48 ([3]; full MH pH 7.4),"MIC P. aeruginosa ZEM-1A, 12.5% MHB [4]","MIC P. aeruginosa ZEM-1A, full MHB [4]",MIC P. aeruginosa ZEM-1A ([4]; 12.5% MH pH 7.4),MIC P. aeruginosa ZEM-1A ([4]; full MH pH 7.4),"MIC E. cloacae, 12.5% MHB [5]","MIC E. cloacae, full MHB [5]",MIC E. cloacae ([5]; 12.5% MH pH 7.4),"MIC P. aeruginosa PA14, 12.5% MHB [6]","MIC P. aeruginosa PA14, full MHB [6]",MIC P. aeruginosa PA14 ([6]; 12.5% MH pH 7.4),MIC P. aeruginosa PA14 ([6]; full MH pH 7.4),"MIC P. aeruginosa PA14 2P4 (pmrB), 12.5% MHB [7]",further results
CC[C@@H](C)[C@@H](NC(=O)[C@@H](CCCNC(=N)N)NC(=O)[C@@H](CCCNC(=N)N)NC(=O)[C@H]1CCCN1C(=O)[C@H]1CCCN1C(=O)[C@@H](CCCNC(=N)N)NC(=O)[C@H]1CCCN1C(=O)[C@@H](CCCNC(=N)N)NC(=O)[C@H]1CCCN1C(=O)[C@@H](CC(C)C)NC(=O)[C@@H](Cc1ccc(O)cc1)NC(=O)[C@H]1CCCN1C(=O)[C@H]1CCCN1C(=O)[C@@H](CCCCN)NC(=O)[C@@H](CC(=O)O)NC(=O)[C@H](N)C(C)C)C(=O)N[C@H](Cc1ccc(O)cc1)C(=O)N[C@H](CC(N)=O)C(=O)N[C@H](CCCNC(=N)N)C(N)=O [D-Onc] (H-[dV][dD][dK][dP][dP][dY][dL][dP][dR][dP][dR][dP][dP][dR][dR][dI][dY][dN][dR]-NH2),32 µg/mL,> 64 µg/mL,32 µg/mL,>64 µg/mL,>64/64 μg/mL,>64/64 μg/mL,64 µg/mL,>64 µg/mL,>64/>64 ^c μg/mL,>64/>64 ^c μg/mL,>64 µg/mL,>64 µg/mL,16 µg/mL,> 64 µg/mL,16 µg/mL,32 µg/mL,> 64 µg/mL,32 µg/mL,>64 µg/mL,8 µg/mL,"Haemolysis on hRBC, MHC ([1]; 2.5% human red blood cells (final) in 10 mM phosphate, 150 mM NaCl, pH 7.4, 25 °C, 4 h, visual inspection): >1000 µg/mL; MHC human red blood cells ([1]; supplement CSV): >1000 µg/mL; MIC E. cloacae ([5]; full MH pH 7.4): >64 µg/mL; MIC P. aeruginosa PA14 2P4 (pmrB), full MHB [7]: > 64 µg/mL; MIC P. aeruginosa PA14 2P4 ([7]; 12.5% MH pH 7.4): 8 µg/mL; MIC P. aeruginosa PA14 2P4 ([7]; full MH pH 7.4): >64 µg/mL; MIC P. aeruginosa PA14 4.18 (pmrB), 12.5% MHB [8]: 16 µg/mL; MIC P. aeruginosa PA14 4.18 (pmrB), full MHB [8]: > 64 µg/mL; MIC P. aeruginosa PA14 4.18 ([8]; 12.5% MH pH 7.4): 16 µg/mL; MIC P. aeruginosa PA14 4.18 ([8]; full MH pH 7.4): >64 µg/mL; MIC E. coli BW25113 WT, 12.5% MH [9]: 16 µg/mL; MIC E. coli BW25113 WT, Full MH [9]: > 64 µg/mL; MIC E. coli BW25113 SbmA-, 12.5% MH [10]: 16 µg/mL; MIC E. coli BW25113 SbmA-, Full MH [10]: > 64 µg/mL"
"polymyxin B [PMB, reference compound]",2 µg/mL,> 64 µg/mL,2 µg/mL,>64 µg/mL,1–2/1–2 μg/mL,1–2/1–2 μg/mL,1 to 2 µg/mL,1 to 2 µg/mL,8 µg/mL,16 µg/mL,8 µg/mL,16 µg/mL,1 to 2 µg/mL,2 µg/mL,1 to 2 µg/mL,1 µg/mL,< 0.5 µg/mL,1 µg/mL,<0.5 µg/mL,1 µg/mL,"MIC P. aeruginosa PA14 2P4 (pmrB), full MHB [7]: 4 µg/mL; MIC P. aeruginosa PA14 2P4 ([7]; 12.5% MH pH 7.4): 1 µg/mL; MIC P. aeruginosa PA14 2P4 ([7]; full MH pH 7.4): 4 µg/mL; MIC P. aeruginosa PA14 4.18 (pmrB), 12.5% MHB [8]: 1 µg/mL; MIC P. aeruginosa PA14 4.18 (pmrB), full MHB [8]: 2 µg/mL; MIC P. aeruginosa PA14 4.18 ([8]; 12.5% MH pH 7.4): 1 µg/mL; MIC P. aeruginosa PA14 4.18 ([8]; full MH pH 7.4): 2 µg/mL; MIC E. coli BW25113 WT, 12.5% MH [9]: 1 to 2 µg/mL; MIC E. coli BW25113 WT, Full MH [9]: 2 µg/mL; MIC E. coli BW25113 SbmA-, 12.5% MH [10]: 1 µg/mL; MIC E. coli BW25113 SbmA-, Full MH [10]: 1 µg/mL"
